Laboratory results published in patent US20260240860A1, “COMPOSITION FOR REJUVENATION OF SENESCENT CELLS OR DELAY OR PREVENTION OF CELLULAR SENESCENCE” (LONO JAEYAK INC., priority 2022, published 2026).

System: senescent human skin fibroblasts collected from newborn skin
Assay: Experiment to confirm cell division (Hoechst assay)
Assay type: cell-based
Conditions: for cell division results when the named compound replaced KU60019 (ATM kinase inhibitor) or ABT263 (Bcl-2 inhibitor) in the combinations: FIGS. 8 to 10; for cell rejuvenation effect of the five-component combination with the named compound as ATM kinase inhibitor or Bcl-2 inhibitor: FIGS. 24 and 25, ATM kinase inhibitor+ROCK inhibitor+Bcl-2 inhibitor+SIRT1 activator+AMPK activator treated together
Experimental: The human dermal fibroblasts used in the experiment were samples collected from newborn skin (PCS-201-010; ATCC), and the cells were cultured in a culture solution of DMEM [25 mM glucose, 10% FBS (S001-01; Welgene), 100 units/ml penicillin, 10 μg/ml streptomycin, and 25 ng/ml amphotericin B (LS203-01; Welgene)] under the conditions of 37° C. and 5% CO2.
After the 48th passage, ½ of the cells were cultured. When the population doubling time (DT) exceeded 14 days and the senescence-associated β-galactosidase (SA-β) ratio exceeded 95%, experiments were conducted by considering the cells as sufficiently aged.
The cell division ability of the senescent cells treated with the compounds in the above examples and comparative examples was investigated.
The cells to be used in the experiment were transplanted into a plate three days before the experiment. The cells treated with the compounds were stained with 10 μg/ml Hoechst 33342 for 30 minutes and washed twice with phosphate-buffered saline (PBS), and the amount of the cells was quantified using a plate reader (FLUOstar Omega) at wavelengths of ex/em: 355/460 nm.
FIGS. 1 to 10 show the experimental results for each example and comparative example in which human skin fibroblasts collected from newborn skin were used as senescent cells.
An additional experiment was conducted using the same method as Experimental Example 1, but with a greater variety of concentrations of the treated substances.

| SMILES | cell division results when the named compound replaced KU60019 (ATM kinase inhibitor) or ABT263 (Bcl-2 inhibitor) in the combinations | cell rejuvenation effect of the five-component combination with the named compound as ATM kinase inhibitor or Bcl-2 inhibitor |
| --- | --- | --- |
| CN(C)CC[C@H](CSc1ccccc1)Nc1ccc(S(=O)(=O)NC(=O)c2ccc(N3CCN(Cc4ccccc4-c4ccc(Cl)cc4)CC3)cc2)cc1[N+](=O)[O-] [ABT737] | the results showed the same pattern | – |
| CNC(=O)c1ccc(-c2cnc3cnc(-c4ccccc4)cn23)cc1 [AZ32] | the results showed the same pattern | excellent cell rejuvenation effect |
| C/C1=C\CCC2=C[C@@H](OC2=O)c2c(C)coc2C1 [linderalactone] | the results showed the same pattern | excellent cell rejuvenation effect |
